# ChEMBL document CHEMBL1201862, “PubChem BioAssay data set” (2004)
#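 Where inhibition never reached the appropriate level, the endpoint shown equals the highest concentration tested. Otherwise, values were interpolated linearly from a five-concentration, 48-hour dose response in 96-well plates. GI50: concentration for 50% inhibition of growth.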 Activity calls are given as the source filed them. Cut-off read from the data, not from the text of the source: active = GI50 up to about 1.1 µM and inactive = higher. Peptide text beside a SMILES is read from it. * marks the point of attachment. Boc = CC(C)(C)OC(=O)*; OBn = c1ccc(CO*)cc1
# What was measured:
# Assay in all cases: inhibition of tumour cell growth, NCI panel, 48 h
# BT-549 = tested on: BT-549
# SN12C = tested on: SN12C
# SK-MEL-5 = tested on: SK-MEL-5
# K562 = tested on: K562
# Malme-3M = tested on: Malme-3M
# HOP-62 = tested on: HOP-62
# T47D = tested on: T47D
# SNB-75 = tested on: SNB-75
# SW-620 = tested on: SW-620
# SF-295 = tested on: SF-295
# SK-OV-3 = tested on: SK-OV-3
# HL-60 = tested on: HL-60
# OVCAR-4 = tested on: OVCAR-4
# UO-31 = tested on: UO-31
# NCI-H522 = tested on: NCI-H522
# PC-3 = tested on: PC-3
# OVCAR-5 = tested on: OVCAR-5
# MDA-MB-435 = tested on: MDA-MB-435
# NCI-H460 = tested on: NCI-H460
# MCF7 = tested on: MCF7
SMILES,GI50 (BT-549),GI50 (SN12C),GI50 (SK-MEL-5),GI50 (K562),GI50 (Malme-3M),GI50 (HOP-62),GI50 (T47D),GI50 (SNB-75),GI50 (SW-620),GI50 (SF-295),GI50 (SK-OV-3),GI50 (HL-60),GI50 (OVCAR-4),GI50 (UO-31),GI50 (NCI-H522),GI50 (PC-3),GI50 (OVCAR-5),GI50 (MDA-MB-435),GI50 (NCI-H460),GI50 (MCF7)
Cc1cc(NCCCCCCCNc2cc(C)nc3cc([N+](=O)[O-])ccc23)c2ccc([N+](=O)[O-])cc2n1,20 µM (inactive),4 µM (inactive),6.43 µM (inactive),1.28 µM (inactive),29.6 µM (inactive),20.5 µM (inactive),3.52 µM (inactive),11.2 µM (inactive),2.1 µM (inactive),5.9 µM (inactive),24.9 µM (inactive),0.451 µM (active),2 µM (inactive),13.9 µM (inactive),1.61 µM (inactive),13.5 µM (inactive),15.6 µM (inactive),11.7 µM (inactive),2.04 µM (inactive),–
Cc1sc2c(c1C)/C(=N\O)c1cccn1-2,42.1 µM (inactive),38.5 µM (inactive),46.1 µM (inactive),–,45.1 µM (inactive),25.3 µM (inactive),25.1 µM (inactive),16.2 µM (inactive),58.6 µM (inactive),54.7 µM (inactive),39.7 µM (inactive),–,44.9 µM (inactive),31.6 µM (inactive),19 µM (inactive),29.9 µM (inactive),> 100 µM (inactive),54 µM (inactive),35.1 µM (inactive),39.1 µM (inactive)
CNc1nc(SC)nc2c1c(N)nn2C,> 100 µM (inactive),> 100 µM (inactive),> 100 µM (inactive),> 100 µM (inactive),> 100 µM (inactive),> 100 µM (inactive),> 100 µM (inactive),95.7 µM (inactive),> 100 µM (inactive),> 100 µM (inactive),> 100 µM (inactive),–,> 100 µM (inactive),> 100 µM (inactive),> 100 µM (inactive),> 100 µM (inactive),> 100 µM (inactive),> 100 µM (inactive),> 100 µM (inactive),–
CC12CCC(/C(=N/c3ccc([N+](=O)[O-])cc3)C1=O)C2(C)C (centres undefined),36.6 µM (inactive),–,26.2 µM (inactive),19 µM (inactive),13.9 µM (inactive),25.2 µM (inactive),16.3 µM (inactive),–,23.3 µM (inactive),27.1 µM (inactive),28.4 µM (inactive),–,13.1 µM (inactive),17.8 µM (inactive),–,24.5 µM (inactive),51.5 µM (inactive),17.1 µM (inactive),25.6 µM (inactive),> 100 µM (inactive)
CCCC(=O)Nc1cc(/C=C/C(=O)N2CC(CCl)c3ccc([N+](=O)[O-])cc32)n(C)c1 (centres undefined),4.07 µM (inactive),> 100 µM (inactive),–,> 100 µM (inactive),> 100 µM (inactive),–,70 µM (inactive),> 100 µM (inactive),> 100 µM (inactive),44.1 µM (inactive),> 100 µM (inactive),–,> 100 µM (inactive),> 100 µM (inactive),28.8 µM (inactive),> 100 µM (inactive),> 100 µM (inactive),> 100 µM (inactive),–,68.7 µM (inactive)
COc1ccc2c(c1)nc1n2C(c2c(Cl)cccc2Cl)SC1 (centres undefined),> 67.3 µM (inactive),> 57.5 µM (inactive),5.02 µM (inactive),> 100 µM (inactive),3.01 µM (inactive),32.9 µM (inactive),16.9 µM (inactive),> 28.2 µM (inactive),–,5.71 µM (inactive),> 51.9 µM (inactive),–,> 46.6 µM (inactive),46.5 µM (inactive),–,> 33.3 µM (inactive),> 67.8 µM (inactive),2.59 µM (inactive),12.1 µM (inactive),5.68 µM (inactive)
CC(C)CC(NC(=O)OC(C)(C)C)C(=O)NC(CC(=O)OCc1ccccc1)C(N)=O (stereo not drawn) (Boc-Leu-Asp(OBn)-NH2; configuration not given here),> 100 µM (inactive),> 100 µM (inactive),> 100 µM (inactive),> 100 µM (inactive),> 100 µM (inactive),–,> 100 µM (inactive),17.3 µM (inactive),> 100 µM (inactive),> 100 µM (inactive),> 100 µM (inactive),–,> 100 µM (inactive),> 100 µM (inactive),> 100 µM (inactive),> 100 µM (inactive),> 100 µM (inactive),> 100 µM (inactive),–,> 100 µM (inactive)
CC(=O)O[C@H]1C(=O)[C@@]2(C)[C@H]([C@H](OC(=O)c3cccc([N+](=O)[O-])c3)[C@]3(O)C[C@H](OC(=O)[C@H](O)[C@@H](NC(=O)c4ccccc4)c4ccccc4)C(C)=C1C3(C)C)[C@]1(OC(C)=O)CO[C@@H]1C[C@@H]2O,0.0376 µM (active),0.00695 µM (active),0.00582 µM (active),0.00482 µM (active),–,0.0107 µM (active),–,0.00759 µM (active),0.00706 µM (active),0.0155 µM (active),0.00703 µM (active),< 0.0025 µM (active),3.58 µM (inactive),0.568 µM (active),0.00362 µM (active),0.0065 µM (active),0.0105 µM (active),0.00336 µM (active),0.00601 µM (active),0.00423 µM (active)
CCOc1cc2c(OCc3ccccc3)cc3c4cc(OC)c(OC)cc4c[n+](C)c3c2cc1OC,0.789 µM (active),0.471 µM (active),1.38 µM (inactive),1.18 µM (inactive),0.986 µM (active),2.99 µM (inactive),0.446 µM (active),0.442 µM (active),1.47 µM (inactive),8.57 µM (inactive),3.02 µM (inactive),–,2.04 µM (inactive),25.3 µM (inactive),0.391 µM (active),1.66 µM (inactive),7.13 µM (inactive),0.789 µM (active),4.97 µM (inactive),0.671 µM (active)
Cc1cc2c3c(c1)S(=O)(=O)c1cc(Cl)ccc1N3CCC2,> 100 µM (inactive),> 100 µM (inactive),> 100 µM (inactive),96.8 µM (inactive),> 100 µM (inactive),76.7 µM (inactive),–,58.5 µM (inactive),> 100 µM (inactive),56 µM (inactive),> 100 µM (inactive),> 100 µM (inactive),64.3 µM (inactive),> 100 µM (inactive),–,88.1 µM (inactive),> 100 µM (inactive),> 100 µM (inactive),> 100 µM (inactive),> 100 µM (inactive)
Cc1csc2c(=O)n(C3OC(CO)C(O)C3O)c(=O)[nH]c12 (centres undefined),> 100 µM (inactive),> 100 µM (inactive),> 100 µM (inactive),> 100 µM (inactive),> 100 µM (inactive),> 100 µM (inactive),–,> 100 µM (inactive),> 100 µM (inactive),> 100 µM (inactive),–,> 100 µM (inactive),> 100 µM (inactive),> 100 µM (inactive),> 100 µM (inactive),> 100 µM (inactive),> 100 µM (inactive),> 100 µM (inactive),> 100 µM (inactive),> 100 µM (inactive)
